Laboratory results as given in ChEMBL document CHEMBL3046126, “Synthesis and Herbicidal Activity of New Oxazolidinedione Derivatives” (J Pestic Sci, 1999).

Experiments:
Echinochloa oryzicola [1] = test: Pre-emergence herbicidal activity against Echinochloa oryzicola assessed as phytotoxic weed control visual ratings measured after 14 days post treatment; format: functional
Chenopodium album = test: Pre-emergence herbicidal activity against Chenopodium album assessed as phytotoxic weed control visual ratings at 500 g ai/ha measured after 14 days post treatment under upland field conditions; format: functional
[2] = tested on: Schoenoplectiella juncoides; test: Pre-emergence herbicidal activity against Schoenoplectiella juncoides assessed as phytotoxic weed control visual ratings at 25 g ai/ha measured after 14 days post treatment under flooded conditions; format: functional
Oryza sativa [3] = test: Post-emergence phytotoxicity against Oryza sativa cv. Koshihikari (rice) assessed as phytotoxic crop injury visual ratings measured after 14 days post treatment; format: organism-based; settings: in vivo, 336 h
Oryza sativa [4] = test: Pre-emergence phytotoxicity against Oryza sativa cv. Koshihikari (rice) assessed as phytotoxic crop injury visual ratings measured after 14 days post treatment; format: organism-based; settings: in vivo, 336 h
Pontederia vaginalis [5] = test: Pre-emergence herbicidal activity against Monochoria vaginalis assessed as phytotoxic weed control visual ratings at 25 g ai/ha measured after 14 days post treatment under flooded conditions; format: functional
Digitaria ciliaris = test: Pre-emergence herbicidal activity against Digitaria ciliaris assessed as phytotoxic weed control visual ratings at 500 g ai/ha measured after 14 days post treatment under upland field conditions; format: functional
Echinochloa oryzicola [6] = test: Post-emergence herbicidal activity against Echinochloa oryzicola assessed as phytotoxic weed control visual ratings measured after 14 days post treatment; format: functional
Echinochloa oryzicola [7] = test: Pre-emergence herbicidal activity against Echinochloa oryzicola assessed as phytotoxic weed control visual ratings at 25 g ai/ha measured after 14 days post treatment under flooded conditions; format: functional
Elatine triandra [8] = test: Pre-emergence herbicidal activity against Elatine triandra assessed as phytotoxic weed control visual ratings at 25 g ai/ha measured after 14 days post treatment under flooded conditions; format: functional
Cyperus difformis [9] = test: Pre-emergence herbicidal activity against Cyperus difformis assessed as phytotoxic weed control visual ratings at 25 g ai/ha measured after 14 days post treatment under flooded conditions; format: functional
Rotala indica [10] = test: Pre-emergence herbicidal activity against Rotala indica assessed as phytotoxic weed control visual ratings at 25 g ai/ha measured after 14 days post treatment under flooded conditions; format: functional
[11] = Selectivity index, ratio of ED10 for Oryza sativa to ED90 for Echinochloa oryzicola by pre-emergence exposure method
Lindernia procumbens [12] = test: Pre-emergence herbicidal activity against Lindernia procumbens assessed as phytotoxic weed control visual ratings at 25 g ai/ha measured after 14 days post treatment under flooded conditions; format: functional
Echinochloa crus-galli [13] = test: Pre-emergence herbicidal activity against Echinochloa crus-galli (barnyard grass) assessed as phytotoxic weed control visual ratings at 500 g ai/ha measured after 14 days post treatment under upland field conditions; format: functional
Amaranthus viridis = test: Pre-emergence herbicidal activity against Amaranthus viridis assessed as phytotoxic weed control visual ratings at 500 g ai/ha measured after 14 days post treatment under upland field conditions; format: functional
Oryza sativa [14] = test: Pre-emergence phytotoxicity against Oryza sativa cv. Koshihikari (rice) assessed as phytotoxic crop injury visual ratings at 25 g ai/ha measured after 14 days post treatment under flooded conditions; format: organism-based; settings: in vivo, other, 336 h
[15] = Selectivity index, ratio of ED10 for Oryza sativa to ED90 for Echinochloa oryzicola by post-emergence exposure method
Zea mays = test: Pre-emergence phytotoxicity against Zea mays (maize) assessed as phytotoxic crop injury visual ratings at 500 g ai/ha measured after 14 days post treatment under upland field conditions; format: organism-based; settings: in vivo, other, 336 h
Echinochloa crus-galli [16] = test: Early post-emergence herbicidal activity against Echinochloa crus-galli (barnyard grass) assessed as phytotoxic weed control visual ratings at 50 kg ai/ha measured after 14 days post treatment under flooded conditions; format: functional
Ammannia multiflora = test: Early post-emergence herbicidal activity against Ammannia multiflora assessed as phytotoxic weed control visual ratings at 50 kg ai/ha measured after 14 days post treatment under flooded conditions; format: functional
Pontederia vaginalis [17] = test: Early post-emergence herbicidal activity against Monochoria vaginalis assessed as phytotoxic weed control visual ratings at 50 kg ai/ha measured after 14 days post treatment under flooded conditions; format: functional
Oryza sativa [18] = test: Pre-emergence phytotoxicity against Oryza sativa cv. Koshihikari (rice) assessed as induction of leaf sheath browning at 2.5 kg ai/ha measured after 14 days post treatment under flooded conditions; format: organism-based; settings: in vivo, other, 336 h
Cyperus difformis [19] = test: Pre-emergence herbicidal activity against Cyperus difformis assessed as phytotoxic weed control visual ratings at 2.5 kg ai/ha measured after 14 days post treatment under flooded conditions; format: functional
Elatine triandra [20] = test: Pre-emergence herbicidal activity against Elatine triandra assessed as phytotoxic weed control visual ratings at 2.5 kg ai/ha measured after 14 days post treatment under flooded conditions; format: functional
Echinochloa oryzicola [21] = test: Pre-emergence herbicidal activity against Echinochloa oryzicola assessed as phytotoxic weed control visual ratings at 2.5 kg ai/ha measured after 14 days post treatment under flooded conditions; format: functional
Oryza sativa [22] = test: Pre-emergence phytotoxicity against Oryza sativa cv. Koshihikari (rice) assessed as phytotoxic crop injury visual ratings at 2.5 kg ai/ha measured after 14 days post treatment under flooded conditions; format: organism-based; settings: in vivo, other, 336 h
Lindernia procumbens [23] = test: Pre-emergence herbicidal activity against Lindernia procumbens assessed as phytotoxic weed control visual ratings at 2.5 kg ai/ha measured after 14 days post treatment under flooded conditions; format: functional
Pontederia vaginalis [24] = test: Pre-emergence herbicidal activity against Monochoria vaginalis assessed as phytotoxic weed control visual ratings at 2.5 kg ai/ha measured after 14 days post treatment under flooded conditions; format: functional
Rotala indica [25] = test: Pre-emergence herbicidal activity against Rotala indica assessed as phytotoxic weed control visual ratings at 2.5 kg ai/ha measured after 14 days post treatment under flooded conditions; format: functional
[26] = tested on: Schoenoplectiella juncoides; test: Pre-emergence herbicidal activity against Schoenoplectiella juncoides assessed as phytotoxic weed control visual ratings at 2.5 kg ai/ha measured after 14 days post treatment under flooded conditions; format: functional
Elatine triandra [27] = test: Pre-emergence herbicidal activity against Elatine triandra assessed as phytotoxic weed control visual ratings at 1.25 kg ai/ha measured after 14 days post treatment under flooded conditions; format: functional
Pontederia vaginalis [28] = test: Pre-emergence herbicidal activity against Monochoria vaginalis assessed as phytotoxic weed control visual ratings at 1.25 kg ai/ha measured after 14 days post treatment under flooded conditions; format: functional
[29] = tested on: Schoenoplectiella juncoides; test: Pre-emergence herbicidal activity against Schoenoplectiella juncoides assessed as phytotoxic weed control visual ratings at 1.25 kg ai/ha measured after 14 days post treatment under flooded conditions; format: functional
Echinochloa oryzicola [30] = test: Pre-emergence herbicidal activity against Echinochloa oryzicola assessed as phytotoxic weed control visual ratings at 1.25 kg ai/ha measured after 14 days post treatment under flooded conditions; format: functional
Oryza sativa [31] = test: Pre-emergence phytotoxicity against Oryza sativa cv. Koshihikari (rice) assessed as phytotoxic crop injury visual ratings at 1.25 kg ai/ha measured after 14 days post treatment under flooded conditions; format: organism-based; settings: in vivo, other, 336 h
Lindernia procumbens [32] = test: Pre-emergence herbicidal activity against Lindernia procumbens assessed as phytotoxic weed control visual ratings at 1.25 kg ai/ha measured after 14 days post treatment under flooded conditions; format: functional
Rotala indica [33] = test: Pre-emergence herbicidal activity against Rotala indica assessed as phytotoxic weed control visual ratings at 1.25 kg ai/ha measured after 14 days post treatment under flooded conditions; format: functional
Cyperus difformis [34] = test: Pre-emergence herbicidal activity against Cyperus difformis assessed as phytotoxic weed control visual ratings at 1.25 kg ai/ha measured after 14 days post treatment under flooded conditions; format: functional

| Compound | ED90 (Echinochloa oryzicola [1]) [gAi/ha] | Phytotoxicity (Chenopodium album) [%] | Phytotoxicity [2] [%] | ED10 (Oryza sativa [3]) [gAi/ha] | ED10 (Oryza sativa [4]) [gAi/ha] | Phytotoxicity (Pontederia vaginalis [5]) [%] | Phytotoxicity (Digitaria ciliaris) [%] | ED90 (Echinochloa oryzicola [6]) [gAi/ha] | Phytotoxicity (Echinochloa oryzicola [7]) [%] | Phytotoxicity (Elatine triandra [8]) [%] | Phytotoxicity (Cyperus difformis [9]) [%] | Phytotoxicity (Rotala indica [10]) [%] | Selectivity Index [11] | Phytotoxicity (Lindernia procumbens [12]) [%] | Phytotoxicity (Echinochloa crus-galli [13]) [%] | Phytotoxicity (Amaranthus viridis) [%] | Phytotoxicity (Oryza sativa [14]) [%] | Selectivity Index [15] | Phytotoxicity (Zea mays) [%] | also measured |
| --- | --- | --- | --- | --- | --- | --- | --- | --- | --- | --- | --- | --- | --- | --- | --- | --- | --- | --- | --- | --- |
| C#CCSc1cc(N2C(=O)OC(=C(C)C)C2=O)c(F)cc1Cl | 12.5 | 100 | 100 | 200 | 50 | 100 | 30 | 100 | 100 | 100 | 100 | 100 | 4 | 100 | 50 | 100 | 0 | 2 | 0 | – |
| CC(C)Oc1cc(-n2nc(C(C)(C)C)oc2=O)c(Cl)cc1Cl [OXADIAZON] | 25 | 100 | 100 | 400 | 200 | 100 | 100 | 50 | 90 | 100 | 100 | 100 | 8 | 100 | 100 | 100 | 0 | 8 | 40 | – |
| C#CCOc1cc(N2C(=O)OC(=C(C)C)C2=O)c(F)cc1Cl | 3.13 | 100 | 100 | 25 | 6.25 | 100 | 100 | 12.5 | 100 | 100 | 100 | 100 | 2 | 100 | 80 | 100 | 30 | 2 | 10 | Phytotoxicity (Echinochloa crus-galli [16]): 100%; Phytotoxicity (Ammannia multiflora): 100%; Phytotoxicity (Pontederia vaginalis [17]): 100% |
| CC(C)=C1OC(=O)N(c2cc(OC3CCCC3)c(Cl)cc2F)C1=O [PENTOXAZONE] | 12.5 | 50 | 100 | 400 | 200 | 100 | 90 | 25 | 100 | 100 | 100 | 100 | 16 | 100 | 60 | 100 | 0 | 16 | 10 | – |
| CC(C)=C1OC(=O)N(c2ccc(Cl)cc2Cl)C1=O | – | – | – | – | – | – | – | – | – | – | – | – | – | – | – | – | – | – | – | Activity (Oryza sativa [18]): Toxic; Phytotoxicity (Cyperus difformis [19]): 100%; Phytotoxicity (Elatine triandra [20]): 100%; Phytotoxicity (Echinochloa oryzicola [21]): 100%; Phytotoxicity (Oryza sativa [22]): 20%; Phytotoxicity (Lindernia procumbens [23]): 100%; Phytotoxicity (Pontederia vaginalis [24]): 100%; Phytotoxicity (Rotala indica [25]): 100%; Phytotoxicity [26]: 100% |
| C#CCOc1cc(N2C(=O)OC(=C(C)C)C2=O)c(Cl)cc1Cl | – | – | – | – | – | – | – | – | – | – | – | – | – | – | – | – | – | – | – | Phytotoxicity (Echinochloa crus-galli [16]): 90%; Phytotoxicity (Ammannia multiflora): 90%; Phytotoxicity (Pontederia vaginalis [17]): 100% |
| CC(C)=C1OC(=O)N(c2cc(OC3CCCCC3)c(Cl)cc2F)C1=O | 25 | 20 | 80 | 200 | 200 | 100 | 30 | 25 | 100 | 100 | 100 | 100 | 8 | 100 | 10 | 30 | 0 | 8 | 10 | – |
| C#CCOc1cc(N2C(=O)OC(=C(C)C)C2=O)c(F)cc1Br | – | – | – | – | – | – | – | – | – | – | – | – | – | – | – | – | – | – | – | Phytotoxicity (Echinochloa crus-galli [16]): 80%; Phytotoxicity (Ammannia multiflora): 100%; Phytotoxicity (Pontederia vaginalis [17]): 100% |
| C=CCOc1cc(N2C(=O)OC(=C(C)C)C2=O)c(F)cc1Cl | 50 | 70 | 90 | 100 | 50 | 100 | 90 | 100 | 80 | 100 | 100 | 100 | 1 | 100 | 30 | 80 | 0 | 1 | 10 | – |
| CC(C)=C1OC(=O)N(c2ccc(Cl)cc2)C1=O | – | – | – | – | – | – | – | – | – | – | – | – | – | – | – | – | – | – | – | Activity (Oryza sativa [18]): Toxic; Phytotoxicity (Elatine triandra [27]): 100%; Phytotoxicity (Cyperus difformis [19]): 100%; Phytotoxicity (Elatine triandra [20]): 100%; Phytotoxicity (Pontederia vaginalis [28]): 100%; Phytotoxicity (Echinochloa oryzicola [21]): 100%; Phytotoxicity (Oryza sativa [22]): 30%; Phytotoxicity (Lindernia procumbens [23]): 100%; Phytotoxicity [29]: 100%; Phytotoxicity (Pontederia vaginalis [24]): 100%; Phytotoxicity (Echinochloa oryzicola [30]): 90%; Phytotoxicity (Oryza sativa [31]): 10%; Phytotoxicity (Rotala indica [25]): 100%; Phytotoxicity (Lindernia procumbens [32]): 100%; Phytotoxicity (Rotala indica [33]): 100%; Phytotoxicity (Cyperus difformis [34]): 100%; Phytotoxicity [26]: 100% |
| CC(C)=C1OC(=O)N(c2ccc(Cl)c(Cl)c2)C1=O | – | – | – | – | – | – | – | – | – | – | – | – | – | – | – | – | – | – | – | Activity (Oryza sativa [18]): Toxic; Phytotoxicity (Cyperus difformis [19]): 100%; Phytotoxicity (Elatine triandra [20]): 100%; Phytotoxicity (Echinochloa oryzicola [21]): 10%; Phytotoxicity (Oryza sativa [22]): 10%; Phytotoxicity (Lindernia procumbens [23]): 100%; Phytotoxicity (Pontederia vaginalis [24]): 80%; Phytotoxicity (Rotala indica [25]): 100%; Phytotoxicity [26]: 80% |
| CC(C)=C1OC(=O)N(c2cc(OC(C)C)c(Cl)cc2F)C1=O | 25 | 100 | 90 | 150 | 100 | 100 | 100 | 25 | 100 | 100 | 100 | 100 | 4 | 100 | 90 | 100 | 0 | 6 | 10 | – |
